Data taken from ChEMBL document CHEMBL1201862, “PubChem BioAssay data set” (2004).
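Exposure lasted 48 hours, with cells grown in 96-well plates and compounds tested at five concentrations. Here, GI50 denotes the concentration required for 50% inhibition of growth.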 Active and inactive are the calls of the source. Rule as the data show it: active = GI50 up to about 1.1 µM and inactive = higher.

Assays:
Test in all cases: growth of human tumour cells (NCI), 48 h
786-0 = tested on: 786-0
A498 = tested on: A498
A549 = tested on: A549
ACHN = tested on: ACHN
BT-549 = tested on: BT-549
CAKI-1 = tested on: CAKI-1
CCRF-CEM = tested on: CCRF-CEM
COLO 205 = tested on: COLO 205
DU-145 = tested on: DU-145
EKVX = tested on: EKVX
HCT-116 = tested on: HCT-116
HCT-15 = tested on: HCT-15
HL-60 = tested on: HL-60
HOP-62 = tested on: HOP-62
HOP-92 = tested on: HOP-92
HT-29 = tested on: HT-29
Hs-578T = tested on: Hs-578T
IGROV-1 = tested on: IGROV-1
K562 = tested on: K562
KM12 = tested on: KM12
LOX IMVI = tested on: LOX IMVI
MDA-MB-231 = tested on: MDA-MB-231
MDA-MB-435 = tested on: MDA-MB-435
MDA-N = tested on: MDA-N
MOLT-4 = tested on: MOLT-4
NCI-H226 = tested on: NCI-H226
NCI-H23 = tested on: NCI-H23
NCI/ADR-RES = tested on: NCI/ADR-RES
OVCAR-3 = tested on: OVCAR-3
OVCAR-4 = tested on: OVCAR-4
OVCAR-8 = tested on: OVCAR-8
PC-3 = tested on: PC-3
RPMI-8226 = tested on: RPMI-8226
RXF 393 = tested on: RXF 393
SF-268 = tested on: SF-268
SF-295 = tested on: SF-295
SK-MEL-28 = tested on: SK-MEL-28
SK-MEL-2 = tested on: SK-MEL-2
SK-MEL-5 = tested on: SK-MEL-5
SK-OV-3 = tested on: SK-OV-3
SN12C = tested on: SN12C
SNB-19 = tested on: SNB-19
SNB-75 = tested on: SNB-75
SR = tested on: SR
SW-620 = tested on: SW-620
T47D = tested on: T47D
TK-10 = tested on: TK-10
U-251 = tested on: U-251
UACC-257 = tested on: UACC-257
UACC-62 = tested on: UACC-62
UO-31 = tested on: UO-31
M14 = tested on: M14
MCF7 = tested on: MCF7
Malme-3M = tested on: Malme-3M
NCI-H460 = tested on: NCI-H460
NCI-H522 = tested on: NCI-H522
OVCAR-5 = tested on: OVCAR-5
SF-539 = tested on: SF-539

CC1(c2ccc(Cl)cc2)c2ccccc2C(=O)N1CCCN1C(=O)c2ccccc2C1=O (configuration not stated)
GI50 (786-0): 26.2 µM (inactive)
GI50 (A498): > 100 µM (inactive)
GI50 (A549): 24.7 µM (inactive)
GI50 (ACHN): 29.6 µM (inactive)
GI50 (BT-549): > 100 µM (inactive)
GI50 (CAKI-1): 86.3 µM (inactive)
GI50 (CCRF-CEM): 45.1 µM (inactive)
GI50 (COLO 205): 18.5 µM (inactive)
GI50 (DU-145): 40.3 µM (inactive)
GI50 (EKVX): 3.36 µM (inactive)
GI50 (HCT-116): 13.6 µM (inactive)
GI50 (HCT-15): 34 µM
GI50 (HL-60): 28.5 µM (inactive)
GI50 (HOP-62): 49.7 µM (inactive)
GI50 (HOP-92): 73.6 µM (inactive)
GI50 (HT-29): 32.2 µM (inactive)
GI50 (Hs-578T): 35.4 µM (inactive)
GI50 (IGROV-1): 9.33 µM (inactive)
GI50 (K562): 50.5 µM (inactive)
GI50 (KM12): 20.9 µM (inactive)
GI50 (LOX IMVI): 19.6 µM (inactive)
GI50 (MDA-MB-231): > 100 µM (inactive)
GI50 (MDA-MB-435): 33.3 µM (inactive)
GI50 (MDA-N): 58.7 µM (inactive)
GI50 (MOLT-4): 29.5 µM (inactive)
GI50 (NCI-H226): 22.7 µM (inactive)
GI50 (NCI-H23): 25.4 µM (inactive)
GI50 (NCI/ADR-RES): 19.9 µM (inactive)
GI50 (OVCAR-3): 32.7 µM (inactive)
GI50 (OVCAR-4): 61.8 µM (inactive)
GI50 (OVCAR-8): 26.7 µM (inactive)
GI50 (PC-3): 83 µM (inactive)
GI50 (RPMI-8226): 33.3 µM (inactive)
GI50 (RXF 393): 29.4 µM (inactive)
GI50 (SF-268): 40.6 µM (inactive)
GI50 (SF-295): 24.2 µM (inactive)
GI50 (SK-MEL-28): 69.5 µM (inactive)
GI50 (SK-MEL-2): 20.3 µM (inactive)
GI50 (SK-MEL-5): 16.4 µM (inactive)
GI50 (SK-OV-3): 31.2 µM (inactive)
GI50 (SN12C): > 100 µM (inactive)
GI50 (SNB-19): 18.3 µM (inactive)
GI50 (SNB-75): 58.9 µM (inactive)
GI50 (SR): 34.6 µM (inactive)
GI50 (SW-620): 56.8 µM (inactive)
GI50 (T47D): 21.3 µM (inactive)
GI50 (TK-10): > 100 µM (inactive)
GI50 (U-251): 52.8 µM (inactive)
GI50 (UACC-257): 51.8 µM (inactive)
GI50 (UACC-62): 30.1 µM (inactive)
GI50 (UO-31): 39.9 µM (inactive)

N=C(N)SCc1nc(-c2ccc(Cl)cc2)no1
GI50 (786-0): 14.3 µM (inactive)
GI50 (A498): 16.8 µM (inactive)
GI50 (A549): 38.4 µM (inactive)
GI50 (ACHN): 13.3 µM (inactive)
GI50 (BT-549): 23.2 µM (inactive)
GI50 (CAKI-1): 14 µM (inactive)
GI50 (CCRF-CEM): 3.84 µM (inactive)
GI50 (COLO 205): 14.6 µM (inactive)
GI50 (DU-145): 15.7 µM (inactive)
GI50 (EKVX): 18.5 µM (inactive)
GI50 (HCT-116): 14.6 µM (inactive)
GI50 (HCT-15): 11.2 µM
GI50 (HL-60): 13.8 µM (inactive)
GI50 (HOP-62): 27.3 µM (inactive)
GI50 (HOP-92): 29.1 µM (inactive)
GI50 (HT-29): 10.2 µM (inactive)
GI50 (Hs-578T): 42 µM (inactive)
GI50 (IGROV-1): 32.7 µM (inactive)
GI50 (K562): 5.71 µM (inactive)
GI50 (KM12): 20.8 µM (inactive)
GI50 (LOX IMVI): 14.7 µM (inactive)
GI50 (M14): 16.8 µM (inactive)
GI50 (MCF7): 12.9 µM (inactive)
GI50 (MDA-MB-231): 12.6 µM (inactive)
GI50 (MDA-MB-435): 12.2 µM (inactive)
GI50 (MOLT-4): 3.56 µM (inactive)
GI50 (Malme-3M): 16.9 µM (inactive)
GI50 (NCI-H226): > 100 µM (inactive)
GI50 (NCI-H23): 34.4 µM (inactive)
GI50 (NCI-H460): 23.8 µM (inactive)
GI50 (NCI-H522): 10.6 µM (inactive)
GI50 (NCI/ADR-RES): 27.9 µM (inactive)
GI50 (OVCAR-3): 11.9 µM (inactive)
GI50 (OVCAR-4): 14.6 µM (inactive)
GI50 (OVCAR-5): 10.3 µM (inactive)
GI50 (OVCAR-8): 30.1 µM (inactive)
GI50 (PC-3): 14 µM (inactive)
GI50 (RPMI-8226): 5.05 µM (inactive)
GI50 (RXF 393): 12.1 µM (inactive)
GI50 (SF-268): 19.3 µM (inactive)
GI50 (SF-295): 17.9 µM (inactive)
GI50 (SF-539): 15.8 µM (inactive)
GI50 (SK-MEL-28): 16.9 µM (inactive)
GI50 (SK-MEL-2): 13.2 µM (inactive)
GI50 (SK-MEL-5): 31.1 µM (inactive)
GI50 (SK-OV-3): 26.9 µM (inactive)
GI50 (SN12C): 17.8 µM (inactive)
GI50 (SNB-19): 38.2 µM (inactive)
GI50 (SNB-75): 23.1 µM (inactive)
GI50 (SR): 4.48 µM (inactive)
GI50 (SW-620): 12.2 µM (inactive)
GI50 (T47D): 11.3 µM (inactive)
GI50 (TK-10): 20.6 µM (inactive)
GI50 (U-251): 21.7 µM (inactive)
GI50 (UACC-257): 30.5 µM (inactive)
GI50 (UACC-62): 9.79 µM (inactive)
